Among the data in publication PMC12040169 (PLOS Biology, 2025) are viability values, retold here.

As a reminder, the viability is a read-out of living cells in per cent, often relative to untreated cells.

This data set is described as follows: in vitro. The settings on record: human, hela cells, % viability.
As to `COc1ccc2[nH]cc(C(C(=O)O)N3CCCCC3)c2c1` (stereo not shown) [CBK286676], the viability at 28.5 h, 10 µM was found to be 85.3%.

For `CCOc1ccc(Cc2nnnn2CC(=O)O)cc1` [CBK286677], the viability at 28.5 h, 10 µM is 91.2%.

`Cc1ccc(C)c(NC(=O)N[C@@H](CC(C)C)C(=O)O)c1` [CBK286678]: the viability at 28.5 h, 10 µM amounted to 89%. For the molecule `O=C(O)CCC(=O)NCC1(c2ccccc2)CCCC1` [CBK286679], the viability at 28.5 h, 10 µM was 89.7%. With `CC(=O)N1CCN(C(C(=O)O)c2c[nH]c3cc(NC(=O)c4ccccc4)ccc23)CC1` (stereo not shown) [CBK286680] the figure was 84.9%; with `CN(C)S(=O)(=O)N1CCC(C(=O)O)(c2ccccc2)CC1` [CBK286681], 90.3%. With `O=C(O)C1CCN(C(=O)CCN2C(=O)[C@@H]3Cc4ccccc4CN3C2=O)CC1` [CBK286682] the figure was 88.2%; with `O=C(O)c1ccccc1SC1CCc2ccccc2NC1=O` (stereo not shown) [CBK286683], 83.1%. With `O=C(O)c1ccc(S(=O)(=O)N(CC2CC=CCC2)CC2CCCO2)cc1` (stereo not shown) [CBK286685] the figure was 101%; with `O=C(O)C(c1c[nH]c2ccc(OCc3ccccc3)cc12)N1CCCC1` (stereo not shown) [CBK286686], 97.6%. Take `COc1ccc2c(ccn2CC(=O)NC[C@H]2CC[C@H](C(=O)O)CC2)c1` [CBK286687]: the viability at 28.5 h, 10 µM came out at 110%. `CCOC(=O)N1CCN(C(C(=O)O)c2c[nH]c3cc(OCc4ccccc4)ccc23)CC1` (stereo not shown) [CBK286689]: the viability at 28.5 h, 10 µM turned out to be 97%.

In the case of `O=C(CNC(=O)c1ccccc1C(=O)O)Nc1ccccc1` [CBK286690], the viability at 28.5 h, 10 µM worked out at 94.1%. With `COc1ccccc1N1CCN(c2ccc([N+](=O)[O-])cc2C(=O)O)CC1` [CBK286692], the viability at 28.5 h, 10 µM worked out at 96.3%. As for `CCOc1ccc2c(c1)C(=O)c1cc(OCC(=O)O)ccc1-2` [CBK286693], the viability at 28.5 h, 10 µM was found to be 94.3%. `CCNC(=O)CN1CCN(C(C(=O)O)c2c[nH]c3ccc(C)cc23)CC1` (stereo not shown) [CBK286694]: the viability at 28.5 h, 10 µM stood at 98%. Consider `CN1CCN(C(C(=O)O)c2cn(CCC(=O)O)c3ccc(Br)cc23)CC1` (stereo not shown) [CBK286698], for which the viability at 28.5 h, 10 µM came out at 103%.

For the molecule `COc1ccc(C(CNC(=O)C2C(C(=O)O)C2(C)C)N(C)C)cc1` (stereo not shown) [CBK286700], the viability at 28.5 h, 10 µM was 110%. Consider `COc1cccc(N2CCN(C(C(=O)O)c3cn(C)c4cc(C(=O)O)ccc34)CC2)c1` (stereo not shown) [CBK286701], for which the viability at 28.5 h, 10 µM worked out at 114%.

As for `O=C(O)C[C@H](CNC(=O)COc1ccc2ccc(=O)oc2c1)c1ccc(Cl)cc1` [CBK286702], the viability at 28.5 h, 10 µM is 113%. Turning to `COc1ccc(-c2nc3c(c(SCC(=O)O)n2)COC(C)(C)C3)cc1` [CBK286704], the viability at 28.5 h, 10 µM was 107%. As to `O=C(O)C(Cc1c[nH]cn1)N1C(=O)C2C3C=CC(C3)C2C1=O` (stereo not shown) [CBK286705], the viability at 28.5 h, 10 µM was found to be 88%. With `Cc1ccc(S(=O)(=O)NC[C@H]2CC[C@H](C(=O)O)CC2)cc1` [CBK286706] the figure was 96.1%; with `O=C(O)CCCCCNc1ccc(C(F)(F)F)cc1[N+](=O)[O-]` [CBK286707], 83.3%. Regarding `O=C(N[C@@H](Cc1ccccc1)C(=O)O)c1cccc2c1-c1ccccc1C2=O` [CBK286710], the viability at 28.5 h, 10 µM came out at 92.1%. Take `CCn1cc(C(=O)N2CCC(C(=O)O)CC2)c(=O)c2cc3c(cc21)OCO3` [CBK286713]: the viability at 28.5 h, 10 µM worked out at 111%.

As to `O=C(O)CNC(=O)[C@H]1CC[C@H](Cn2cnc3ccccc3c2=O)CC1` [CBK286714], the viability at 28.5 h, 10 µM was 97%. With `O=C(O)C[C@]1(C(=O)NC2CCCCCC2)CC(c2ccc(Cl)cc2)=NO1` [CBK286716] the figure was 92.3%; with `CCN1CCN(C(=O)c2nccnc2C(=O)O)CC1` [CBK286718], 88.8%. Consider `CC(C)(C)OC(=O)N[C@@H](Cc1ccccc1)C(=O)NC[C@H]1CC[C@H](C(=O)O)CC1` [CBK286719], for which the viability at 28.5 h, 10 µM is 81.9%. On to `CC(C)CCNC(=O)CC(=O)Nc1ccc(C(=O)O)cc1` [CBK286721], for which the viability at 28.5 h, 10 µM turned out to be 85.5%. On to `CC(C)[C@H](NC(=O)C1CC(=O)N(c2ccc(F)cc2)C1)C(=O)N1CCCC1C(=O)O` (stereo partly shown) [CBK286723], for which the viability at 28.5 h, 10 µM was found to be 95%. The figure for `O=C(O)c1ccc(CSc2nnnn2-c2ccccc2)cc1` [CBK286726] is 85.1%; for `COc1ccc2c(C)c(CCC(=O)N(C)CC(=O)O)c(=O)oc2c1` [CBK286731] it is 87%; for `C[C@H](NC(=O)C1CC(=O)N(c2ccc(F)cc2)C1)C(=O)N1CCC(C(=O)O)CC1` (stereo partly shown) [CBK286733] it is 79.7%. `Cc1nn(-c2ccc(C(=O)O)cc2)c2c1C(=O)CC(C)(C)C2` [CBK286734]: the viability at 28.5 h, 10 µM was found to be 86.4%. With `O=C(O)[C@@H]1CC(O)CN1C(=O)c1ccc2noc(-c3ccccc3)c2c1` (stereo partly shown) [CBK286736], the viability at 28.5 h, 10 µM is 86.1%. Take `CC1(C(=O)O)COC(c2ccc([N+](=O)[O-])cc2)OC1` (stereo not shown) [CBK286737]: the viability at 28.5 h, 10 µM was 87.1%. The figure for `Cc1ccc(N2CCCn3c2nc2c3c(=O)n(CC(=O)O)c(=O)n2C)cc1` [CBK286740] is 90.5%.

In the case of `C[C@H](NC(=O)OC(C)(C)C)C(=O)NC[C@H]1CC[C@H](C(=O)O)CC1` [CBK286741], the viability at 28.5 h, 10 µM was determined as 98.7%.

`O=C(O)c1cccc(OCc2nnnn2-c2ccc(Br)cc2)c1` [CBK286744]: the viability at 28.5 h, 10 µM turned out to be 82.7%.

Consider `O=C(O)C1CCC(CNC(=O)C2Cc3ccccc3CN2)CC1` (stereo not shown) [CBK286745], for which the viability at 28.5 h, 10 µM turned out to be 84.6%. The figure for `O=C(CCN1C(=O)[C@@H]2Cc3ccccc3CN2C1=O)N[C@H](C(=O)O)c1ccccc1` [CBK286751] is 88.7%; for `O=C(O)CCCC(=O)N1N=C(c2ccccc2)CC1c1ccc2nccnc2c1` (stereo not shown) [CBK286752] it is 89.4%; for `O=C(O)C1CCCN(C(=O)COc2cc3oc(=O)cc(-c4ccccc4)c3cc2Cl)C1` (stereo not shown) [CBK286753] it is 90.9%. The figure for `CC(=O)NC(CSc1cc(C)nc2ccccc12)C(=O)O` (stereo not shown) [CBK286755] is 87.4%; for `O=C(Cc1ccccc1C(=O)O)Nc1ccc(-n2cncn2)c(Cl)c1` [CBK286756] it is 85.7%; for `CCCC(CCC(=O)Nc1ccccc1Cl)C(=O)O` (stereo not shown) [CBK286757] it is 120%. With `CC(=O)N1CCC2(CC1)NC(=O)N(c1ccc(C(=O)O)cc1)N2` [CBK286758] the figure was 103%. Turning to `CC(C)C[C@@H](C(=O)N1CCC(C(=O)O)CC1)n1c(=O)[nH]c2ccccc2c1=O` [CBK286762], the viability at 28.5 h, 10 µM came to 88.5%. As for `CC(=O)C1=C(O)C(=O)N(CCC(=O)O)C1c1ccccc1` (stereo not shown) [CBK286763], the viability at 28.5 h, 10 µM amounted to 84.3%. The figure for `COc1ccccc1N1CCN(CC(CC(=O)Nc2ccccc2)C(=O)O)CC1` (stereo not shown) [CBK286766] is 88.6%; for `O=C(Cc1c[nH]c2ccccc12)NC(Cc1ccccc1)C(=O)O` (stereo not shown) [CBK286770] it is 120%; for `COc1cc2oc(=O)c(CC(=O)N[C@@H](CC(C)C)C(=O)O)c(C)c2cc1Cl` [CBK286772] it is 104%. With `O=C(O)CCCCC/N=C1\CCc2ccccc2N1` [CBK286773] the figure was 100%. The figure for `O=C(O)Cc1sc(Nc2ccccc2)nc1-c1ccccc1` [CBK286775] is 97.2%; for `Cc1ccc(C(=O)O)cc1NC(=O)C(=O)NCC(c1ccccc1)N(C)C` (stereo not shown) [CBK286777] it is 96.3%; for `CCOc1ccc(C(C)(CC(N)=O)C(=O)O)cc1` (stereo not shown) [CBK286778] it is 97.9%. Take `CC(=O)Cc1c(C(=O)O)c(C)nn1-c1ccccc1` [CBK286779]: the viability at 28.5 h, 10 µM is 104%. For `O=C(O)CNC(=O)CCn1c(-c2ccccc2)cc2ccccc21` [CBK286780], the viability at 28.5 h, 10 µM amounted to 99.2%. On to `CCn1cc(C(=O)N[C@H](C(=O)O)C(C)C)c(=O)c2cc3c(cc21)OCO3` [CBK286786], for which the viability at 28.5 h, 10 µM was found to be 110%. With `O=C(CC(CN1CCN(c2cccc(Cl)c2)CC1)C(=O)O)NCc1ccccc1` (stereo not shown) [CBK286787] the figure was 100%; with `COc1cccc(NC(=O)CC(CN2CCN(c3ccccc3)CC2)C(=O)O)c1` (stereo not shown) [CBK286789], 90.7%; with `CN1CCCN(CC(CC(=O)NCc2ccccc2)C(=O)O)CC1` (stereo not shown) [CBK286791], 86.6%.

Take `Cn1c(=O)c2c(nc(Nc3ccc(Cl)cc3Cl)n2CC(=O)O)n(C)c1=O` [CBK286792]: the viability at 28.5 h, 10 µM stood at 90.5%. Turning to `CC1CC(C)CN(C(=O)NCCCCCC(=O)O)C1` (stereo not shown) [CBK286793], the viability at 28.5 h, 10 µM amounted to 89%. The figure for `O=C(COc1ccc(Br)cc1C(=O)O)NCCc1ccccc1` [CBK286796] is 95.3%; for `COc1cccc(-c2nc(CC(=O)N3CCC(C(=O)O)CC3)cs2)c1` [CBK286797] it is 92.3%. As to `O=C(O)C1CCN(C(=O)CCC2CCCCC2)CC1` [CBK286804], the viability at 28.5 h, 10 µM was determined as 89.3%. For the molecule `O=C(O)c1c2c(nc3ccccc13)CCN(Cc1ccccc1)C2` [CBK286805], the viability at 28.5 h, 10 µM is 87.4%. The figure for `Cc1cc(C)n(C(CC(=O)N2CCCCC2)C(=O)O)n1` (stereo not shown) [CBK286806] is 85.6%. With `CCn1cc(NCc2ccccc2Cl)c(C(=O)O)n1` [CBK286807] the figure was 95.2%; with `O=C(O)CC(C(=O)Nc1ccccc1)C1CCCO1` (stereo not shown) [CBK286809], 93%; with `Cc1nc(OCC(=O)O)c(C#N)c2c1COC(C)(C)C2` [CBK286810], 89.4%.

Take `O=C(CC(CN1CCN(Cc2cccc(Cl)c2)CC1)C(=O)O)Nc1cccc(O)c1` (stereo not shown) [CBK286811]: the viability at 28.5 h, 10 µM stood at 88.9%.

As for `O=C(O)C1CCCN(C(=O)Cn2ccc3ccc(OCc4ccccc4)cc32)C1` (stereo not shown) [CBK286814], the viability at 28.5 h, 10 µM was 89.6%. The figure for `Cc1nc2n(c(=O)c1CCSc1ccccc1C(=O)O)CCCC2` [CBK286818] is 102%; for `C[C@@H]1C[C@H](Nc2ccccc2)c2ccccc2N1C(=O)CCC(=O)O` [CBK286820] it is 95.8%; for `COc1ccccc1N1CCN(CC(CC(=O)Nc2ccc3c(c2)OCO3)C(=O)O)CC1` (stereo not shown) [CBK286822] it is 95%.
